Results published in patent US7863449B2, “Modulators of muscarinic receptors” (Vertex Pharmaceuticals Incorporated, priority 2004, dated 2011).

What was measured:
M1 muscarinic receptor = target: T1, M1 muscarinic receptor (Homo sapiens, UniProt P11229); experiment: Functional mobilization of intracellular calcium (FLIPR), M1-CHO cells; format: cell-based; settings: for Emax: 100% efficacy is the maximum response obtained using Carbachol as a control; for M1 Activity: M1-CHO cells, FLIPR calcium mobilization
T1 construct: expressed in transfected cells; host or cells: CHO (M1-CHO)
T1 sequence (P11229 1-460): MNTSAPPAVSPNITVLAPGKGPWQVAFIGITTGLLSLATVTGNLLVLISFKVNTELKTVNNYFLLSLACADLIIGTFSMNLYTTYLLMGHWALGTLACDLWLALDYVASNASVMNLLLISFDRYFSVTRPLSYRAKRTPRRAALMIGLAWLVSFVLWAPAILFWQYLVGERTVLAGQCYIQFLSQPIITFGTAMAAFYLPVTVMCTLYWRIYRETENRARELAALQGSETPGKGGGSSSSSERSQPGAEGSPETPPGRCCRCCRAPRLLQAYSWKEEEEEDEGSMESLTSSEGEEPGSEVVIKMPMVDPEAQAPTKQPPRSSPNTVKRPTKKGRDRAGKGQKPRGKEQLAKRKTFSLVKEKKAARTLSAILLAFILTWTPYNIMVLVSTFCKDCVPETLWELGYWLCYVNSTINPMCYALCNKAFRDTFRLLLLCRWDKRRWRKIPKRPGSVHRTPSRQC
Method in brief: (§1)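 CHO cells expressing M1 or M4, loaded with Fluo-3 AM or Calcium 3 dye with 1 mM probenecid, 0.5% DMSO final. Agonist mode: compound added directly; antagonist mode: 15 min pre-incubation (or co-application) before carbachol at EC80. Fluorescence recorded 60 s on FLIPR.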

M4 muscarinic receptor = target: T2, M4 muscarinic receptor (Homo sapiens, UniProt P08173); experiment: Functional mobilization of intracellular calcium (FLIPR), M4-CHO cells; format: cell-based; settings: for Emax: 100% efficacy is the maximum response obtained using Carbachol as a control; for M4 Activity: M4-CHO cells, FLIPR calcium mobilization
T2 construct: expressed in transfected cells; host or cells: CHO (M4-CHO)
T2 sequence (P08173 1-479): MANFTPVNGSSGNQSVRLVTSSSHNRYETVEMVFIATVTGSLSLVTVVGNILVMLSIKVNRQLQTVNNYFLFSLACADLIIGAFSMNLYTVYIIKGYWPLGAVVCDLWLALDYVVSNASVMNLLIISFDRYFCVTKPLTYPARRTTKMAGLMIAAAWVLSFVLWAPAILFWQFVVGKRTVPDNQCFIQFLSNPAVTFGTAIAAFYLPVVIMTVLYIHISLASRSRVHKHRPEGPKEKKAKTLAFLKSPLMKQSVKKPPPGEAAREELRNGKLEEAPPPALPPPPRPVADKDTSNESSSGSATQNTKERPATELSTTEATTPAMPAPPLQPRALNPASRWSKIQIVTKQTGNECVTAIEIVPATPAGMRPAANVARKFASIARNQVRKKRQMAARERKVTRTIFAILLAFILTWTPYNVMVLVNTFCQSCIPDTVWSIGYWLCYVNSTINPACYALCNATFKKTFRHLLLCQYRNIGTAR
Method in brief: as §1

Structure (SMILES)	Emax (M1 muscarinic receptor) [%]	M1 Activity (M1 muscarinic receptor)	Emax (M4 muscarinic receptor) [%]	M4 Activity (M4 muscarinic receptor)
CCOC(=O)N1CCC(N2CCC3(CC2)CN(C(=O)C(C)C)Cc2ccccc23)CC1 [compound 279]	25 to 100	+++ (activity was measured to be less than 1.0 μM)	25 to 100	+++ (activity was measured to be less than 1.0 μM)
CCOC(=O)N1CCC(N2CCC3(CC2)CN(C(=O)NC2CCCC2)Cc2ccccc23)CC1 [compound 283]	25 to 100	+++ (activity was measured to be less than 1.0 μM)	25 to 100	+++ (activity was measured to be less than 1.0 μM)
CCOC(=O)N1CCC(CN2CCC3(CC2)CN(C(=O)C2CCC2)Cc2ccccc23)CC1 [compound 284]	25 to 100	+++ (activity was measured to be less than 1.0 μM)	25 to 100	+++ (activity was measured to be less than 1.0 μM)
CCOC(=O)N1CCC(N2CCC3(CC2)CN(C(C)=O)Cc2ccccc23)CC1 [compound 286]	25 to 100	+++ (activity was measured to be less than 1.0 μM)	25 to 100	+++ (activity was measured to be less than 1.0 μM)
CCCOC(=O)N1CC(CN2CCC3(CC2)CN(C(C)=O)Cc2ccccc23)C1 [compound 287]	< 25	+ (activity was measured to be greater than 5.0 μM)	< 25	+ (activity was measured to be greater than 5.0 μM)
CCOC(=O)N1CCC(CN2CCC3(CC2)CN(C(=O)N(C)C)Cc2ccccc23)CC1 [compound 288]	25 to 100	+++ (activity was measured to be less than 1.0 μM)	25 to 100	+++ (activity was measured to be less than 1.0 μM)
CC(=O)N1Cc2ccccc2C2(CCN(CC3CCN(C(=O)OC4CCC4)CC3)CC2)C1 [compound 291]	< 25	+ (activity was measured to be greater than 5.0 μM)	< 25	+ (activity was measured to be greater than 5.0 μM)
CC(=O)N1Cc2ccccc2C2(CCN(C3CCCCC3)CC2)C1 [compound 294]	25 to 100	+++ (activity was measured to be less than 1.0 μM)	25 to 100	+++ (activity was measured to be less than 1.0 μM)
CCOC(=O)N1CCC(N2CCC3(CC2)CN(C(=O)C2(C)CC2)Cc2ccccc23)CC1 [compound 295]	25 to 100	++ (activity was measured to be from 1.0 μM to 5.0 μM)	< 25	++ (activity was measured to be from 1.0 μM to 5.0 μM)
CCCNC(=O)N1Cc2ccccc2C2(CCN(C3CCN(C(=O)OCC)CC3)CC2)C1 [compound 296]	25 to 100	+++ (activity was measured to be less than 1.0 μM)	25 to 100	+++ (activity was measured to be less than 1.0 μM)
CC(=O)N1Cc2ccccc2C2(CCN(Cc3ccccc3O)CC2)C1 [compound 297]	< 25	+ (activity was measured to be greater than 5.0 μM)	< 25	+ (activity was measured to be greater than 5.0 μM)
CC(=O)N1Cc2ccccc2C2(CCN(Cc3sc(C)nc3C)CC2)C1 [compound 301]	< 25	+ (activity was measured to be greater than 5.0 μM)	< 25	+ (activity was measured to be greater than 5.0 μM)
CC(=O)N1Cc2ccccc2C2(CCN(C3CCN(C(=O)O[C@H]4CCOC4)CC3)CC2)C1 [compound 302]	25 to 100	+++ (activity was measured to be less than 1.0 μM)	25 to 100	+++ (activity was measured to be less than 1.0 μM)
CCOC(=O)N1CCC(CN2CCC3(CC2)CN(C(=O)OC(C)C)Cc2ccccc23)CC1 [compound 309]	25 to 100	+++ (activity was measured to be less than 1.0 μM)	25 to 100	+++ (activity was measured to be less than 1.0 μM)
CCOC(=O)N1CCC(N2CCC3(CC2)CN(S(C)(=O)=O)Cc2ccccc23)CC1 [compound 311]	25 to 100	+++ (activity was measured to be less than 1.0 μM)	25 to 100	+++ (activity was measured to be less than 1.0 μM)
CC(=O)N1Cc2ccccc2C2(CCN(Cc3ccc(F)cc3F)CC2)C1 [compound 312]	< 25	+ (activity was measured to be greater than 5.0 μM)	< 25	+ (activity was measured to be greater than 5.0 μM)
CCOC(=O)N1CCC(N2CCC3(CC2)CN(CCC(C)C)Cc2ccccc23)CC1 [compound 313, ethyl 4-(2-isopentyl-2,3-dihydro-1H-spiro[isoquinoline-4,4′-piperidine]-1′-yl)piperidine-1-carboxylate]	> 100	+++ (activity was measured to be less than 1.0 μM)	25 to 100	+++ (activity was measured to be less than 1.0 μM)
CCOC(=O)N1CCC(N2CCC3(CC2)OC(=O)c2ccccc23)CC1 [compound 314, ethyl 4-(3-oxo-3H-spiro[isobenzofuran-1,4′-piperidine]-1′-yl)piperidine-1-carboxylate]	25 to 100	+++ (activity was measured to be less than 1.0 μM)	25 to 100	+++ (activity was measured to be less than 1.0 μM)
CCOC(=O)N1CCC(CN2CCC3(CC2)CN(C(=O)OC2CCC2)Cc2ccccc23)CC1 [compound 315]	25 to 100	+++ (activity was measured to be less than 1.0 μM)	25 to 100	+++ (activity was measured to be less than 1.0 μM)
CCOC(=O)N1C2CCC1CC(N1CCC3(CC1)CN(S(=O)(=O)c1cccs1)Cc1ccccc13)C2 (stereo not drawn) [compound 316]	25 to 100	+++ (activity was measured to be less than 1.0 μM)	25 to 100	+++ (activity was measured to be less than 1.0 μM)
CC(C)OC(=O)N1C2CCC1CC(N1CCC3(CC1)CN(C(=O)N(C)C)Cc1ccccc13)C2 (stereo not drawn) [compound 317]	25 to 100	+++ (activity was measured to be less than 1.0 μM)	25 to 100	+++ (activity was measured to be less than 1.0 μM)
CCOC(=O)N1C2CCC1CC(N1CCC3(CC1)CN(C(=O)c1ccno1)Cc1ccccc13)C2 (stereo not drawn) [compound 318]	25 to 100	+++ (activity was measured to be less than 1.0 μM)	25 to 100	+++ (activity was measured to be less than 1.0 μM)
CCOC(=O)N1C2CCC1CC(N1CCC3(CC1)CN(C(=O)C1CCC1)Cc1ccccc13)C2 (stereo not drawn) [compound 319]	25 to 100	+++ (activity was measured to be less than 1.0 μM)	25 to 100	+++ (activity was measured to be less than 1.0 μM)
CCOC(=O)N1CC[C@H](CN2CCC3(CC2)CN(C(C)=O)Cc2ccccc23)C1 [compound 320]	25 to 100	+++ (activity was measured to be less than 1.0 μM)	25 to 100	+++ (activity was measured to be less than 1.0 μM)
